Assay results published in article PMC9779727, “Identification of Novel Artemisinin Hybrids Induce Apoptosis and Ferroptosis in MCF-7 Cells” (International Journal of Molecular Sciences, 2022).

Experiments:
[1] = test system: breast cancer MCF-7 cells; assay: MTT antiproliferation assay, MCF-7; format: cell-based, human; conditions: 48 h, means ± SD, n = 3
Source text: (§1) The target hybrids A1–A15 were screened for their antiproliferation activities against five human cancer cell lines (lung cancer A549 cells, breast cancer MCF-7 and MDA-MB-231 cells, colon cancer HCT116 cells and ovarian cancer SK-OV-3 cells) in vitro by the standard MTT method, and 5-fluorouracil (5-FU) and ART were coassayed as controls. […] Therefore, the most promising hybrid, A8, was chosen for further exploration of the preliminary mechanism of MCF-7 cell antiproliferation.
(§2) Cytotoxicity of test compounds against five different tumor cell lines were evaluated using an MTT assay in vitro. Cells were seeded into 96-well plates at a density of 5 × 10^4 cells per well and stabilized at 37 °C with 5% CO2 for 24 h. Compounds A1–A15, ART and 5-FU were added to each well at various concentrations and then the cells were incubated for 48 h. The MTT solution (100 μL 0.5 mg/mL^−1) was added to each well, and the cells were incubated for another 4 h. Then, 150 μL DMSO was added to each well and the absorbance of samples was measured at 492 nm. The IC50 values were calculated according to Logit method after getting the inhibitory rate.

MCF-7 cells [2] = assay: Intracellular ROS generation (DCFH-DA, flow cytometry); format: cell-based, human; conditions: MCF-7, 0, 2.5, 5 and 10 μM, 48 h
Description: First, we detected ROS levels using DFCH-DA.
ROS production was detected by using the peroxide-sensitive fluorescent probe DCFH-DA. After treatment with different concentrations of A8 for 48 h, the cells were incubated with 10 μg/mL DCFH-DA at 37 °C for 20 min. Then, cells were harvested. Samples were analyzed by flow cytometry (FACS Calibur, Becton-Dickinson, East Rutherford, NJ, USA).

MCF-7 cells [3] = assay: JC-1 mitochondrial membrane potential assay; format: cell-based, human; conditions: 48 h, control 7.85%
Description: JC-1 staining was also performed to explore the change in mitochondrial membrane potential (MMP), which could induce apoptosis.
MCF-7 cells were plated at 1 × 10^6 cells per well in 24-well plates and incubated with compound A8 at various concentrations (0, 2.5, 5 and 10 μM) for 48 h. Subsequently, the cells were incubated with JC-1 dye and finally analyzed by flow cytometry (Beckman Coulter cytoFLEX, USA).

CYP2D6 = target: T1, CYP2D6 (Homo sapiens, UniProt P10635); assay: CYPs inhibition assay, CYP2D6; format: in vitro ADME; conditions: human liver microsomes
T1 construct: from tissue; host or cells: human liver microsomes
Description: (§3) Finally, we evaluated the interaction between the hybrid A8 and five major metabolic enzymes (CYP1A2, CYP2C9, CYP2C19, CYP2D6 and CYP3A4) in the human body. […] It is also one of the directions for our further transformation and optimization.
(§4) Cytochrome P450 inhibition was evaluated in human liver microsomes (0.253 mg/mL) using five […] (CYP1A2, α-Naphthoflavone; CYP2C9, Sulfaphenazole; CYP2C19, Benzylnirvanol; CYP2D6, Quinidine; and CYP3A4, Ketoconazole.) in the presence of compound A8 (10 μM). After preincubation for 10 min at 37 °C, an NADPH-regenerating system was added. After the mixed system was incubated for 15 min at 37 °C, the reaction was stopped by adding 400 μL of cold stop solution (200 ng/mL tolbutamide and 200 ng/mL labetalol in acetonitrile). Then, the mixture was centrifuged, and the supernatant was analyzed by LC-MS/MS.

lung cancer A549 cells = assay: MTT antiproliferation assay, A549; format: cell-based, human; conditions: 48 h, means ± SD, n = 3
Source text: as §1, §2

[4] = test system: ovarian cancer SK-OV-3 cells; assay: MTT antiproliferation assay, SK-OV-3; format: cell-based, human; conditions: 48 h, means ± SD, n = 3
Source text: as §1, §2

CYP1A2 = target: T2, CYP1A2 (Homo sapiens, UniProt P05177); assay: CYPs inhibition assay, CYP1A2; format: in vitro ADME
T2 construct: from tissue; host or cells: human liver microsomes
T2 sequence (P05177 1-516): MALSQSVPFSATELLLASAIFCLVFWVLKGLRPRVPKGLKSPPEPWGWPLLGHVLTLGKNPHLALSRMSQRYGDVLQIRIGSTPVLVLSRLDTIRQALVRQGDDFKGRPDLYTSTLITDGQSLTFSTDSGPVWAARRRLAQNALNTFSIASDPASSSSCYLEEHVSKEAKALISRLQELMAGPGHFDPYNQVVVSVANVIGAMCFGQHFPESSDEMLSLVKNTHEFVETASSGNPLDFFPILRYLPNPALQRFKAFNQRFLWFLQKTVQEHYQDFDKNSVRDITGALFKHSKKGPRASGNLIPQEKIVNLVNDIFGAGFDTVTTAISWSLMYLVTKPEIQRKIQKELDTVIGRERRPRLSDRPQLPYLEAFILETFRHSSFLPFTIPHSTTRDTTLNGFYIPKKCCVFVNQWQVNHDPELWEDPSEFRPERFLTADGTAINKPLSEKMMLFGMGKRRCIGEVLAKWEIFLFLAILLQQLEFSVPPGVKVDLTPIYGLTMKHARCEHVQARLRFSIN
Description: as §3, §4

MCF-7 cells [5] = assay: Lipid peroxidation (MDA) detection; format: cell-based, human; conditions: MCF-7
Source text: We also determined the effect of A8 on the expression of GSH and MDA (lipid peroxidation).
Lipid peroxidation assay kit (Beyotime, Shanghai, China) was used to detect malonaldehyde (MDA), together with GSH level assay, present in samples, as per the manufacturer’s instruction with slight modifications.

T1 sequence (P10635 whole entry): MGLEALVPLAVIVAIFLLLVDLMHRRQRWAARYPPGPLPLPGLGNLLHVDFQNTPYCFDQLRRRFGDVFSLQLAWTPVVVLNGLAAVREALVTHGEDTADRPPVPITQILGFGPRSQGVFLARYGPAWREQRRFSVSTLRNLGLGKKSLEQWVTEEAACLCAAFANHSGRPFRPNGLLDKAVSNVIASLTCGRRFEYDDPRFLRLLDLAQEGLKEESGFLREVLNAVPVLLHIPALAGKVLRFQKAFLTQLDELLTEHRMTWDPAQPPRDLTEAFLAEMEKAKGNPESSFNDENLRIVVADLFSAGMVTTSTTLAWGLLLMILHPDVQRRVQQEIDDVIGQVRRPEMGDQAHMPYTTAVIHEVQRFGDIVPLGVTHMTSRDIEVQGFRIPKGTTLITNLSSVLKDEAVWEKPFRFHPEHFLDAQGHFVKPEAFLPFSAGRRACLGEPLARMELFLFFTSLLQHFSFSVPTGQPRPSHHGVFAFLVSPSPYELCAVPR

CC1CCC2C(C)C(OC(=O)CCC(=O)NCc3nnc(Nc4ccc(F)cc4F)o3)OC3OC4(C)CCC1C32OO4 (centres unmarked) [A8]
IC50 [1]: 4.07 ± 0.05 µM
ROS fluorescence intensity (in words) (MCF-7 cells [2]): increased significantly with increasing drug concentration
proportion of MCF-7 cells with depolarized mitochondria (Q1-LR) (MCF-7 cells [3]; 2.5 μM): 19.45%
proportion of MCF-7 cells with depolarized mitochondria (Q1-LR) (MCF-7 cells [3]; 5 μM): 36.90%
proportion of MCF-7 cells with depolarized mitochondria (Q1-LR) (MCF-7 cells [3]; 10 μM): 48.70%
Inhibition at 10 μM (%) CYP2D6 (CYP2D6): 0.1%
IC50 (lung cancer A549 cells): 7.7 ± 0.36 µM
IC50 [4]: 7.15 ± 0.95 µM
inhibitory effect on CYP1A2 (in words) (CYP1A2; 10 μM): moderate inhibitory effect
Inhibition at 10 μM (%) CYP1A2 (CYP1A2; human liver microsomes): 57.1%
MDA level (in words) (MCF-7 cells [5]): increased at higher concentrations
